Structures are written as SMILES. Active and inactive are the calls of the source. The calls are words filed in the database; no cut-off is given here.

The target of data set [1] is T1, Receptor tyrosine-protein kinase erbB-2 (Homo sapiens, UniProt P04626). Kind of data set: Pseudo-irreversible inhibition of N-terminus peptide-tagged human recombinant HER2 expressed using baculovirus infection system using [gamma-33P]-ATP preincubated with compound for 5 mins at 10 times IC50 concentration measured after 10 mins by scintillation counting.
T1 sequence (P04626 whole entry): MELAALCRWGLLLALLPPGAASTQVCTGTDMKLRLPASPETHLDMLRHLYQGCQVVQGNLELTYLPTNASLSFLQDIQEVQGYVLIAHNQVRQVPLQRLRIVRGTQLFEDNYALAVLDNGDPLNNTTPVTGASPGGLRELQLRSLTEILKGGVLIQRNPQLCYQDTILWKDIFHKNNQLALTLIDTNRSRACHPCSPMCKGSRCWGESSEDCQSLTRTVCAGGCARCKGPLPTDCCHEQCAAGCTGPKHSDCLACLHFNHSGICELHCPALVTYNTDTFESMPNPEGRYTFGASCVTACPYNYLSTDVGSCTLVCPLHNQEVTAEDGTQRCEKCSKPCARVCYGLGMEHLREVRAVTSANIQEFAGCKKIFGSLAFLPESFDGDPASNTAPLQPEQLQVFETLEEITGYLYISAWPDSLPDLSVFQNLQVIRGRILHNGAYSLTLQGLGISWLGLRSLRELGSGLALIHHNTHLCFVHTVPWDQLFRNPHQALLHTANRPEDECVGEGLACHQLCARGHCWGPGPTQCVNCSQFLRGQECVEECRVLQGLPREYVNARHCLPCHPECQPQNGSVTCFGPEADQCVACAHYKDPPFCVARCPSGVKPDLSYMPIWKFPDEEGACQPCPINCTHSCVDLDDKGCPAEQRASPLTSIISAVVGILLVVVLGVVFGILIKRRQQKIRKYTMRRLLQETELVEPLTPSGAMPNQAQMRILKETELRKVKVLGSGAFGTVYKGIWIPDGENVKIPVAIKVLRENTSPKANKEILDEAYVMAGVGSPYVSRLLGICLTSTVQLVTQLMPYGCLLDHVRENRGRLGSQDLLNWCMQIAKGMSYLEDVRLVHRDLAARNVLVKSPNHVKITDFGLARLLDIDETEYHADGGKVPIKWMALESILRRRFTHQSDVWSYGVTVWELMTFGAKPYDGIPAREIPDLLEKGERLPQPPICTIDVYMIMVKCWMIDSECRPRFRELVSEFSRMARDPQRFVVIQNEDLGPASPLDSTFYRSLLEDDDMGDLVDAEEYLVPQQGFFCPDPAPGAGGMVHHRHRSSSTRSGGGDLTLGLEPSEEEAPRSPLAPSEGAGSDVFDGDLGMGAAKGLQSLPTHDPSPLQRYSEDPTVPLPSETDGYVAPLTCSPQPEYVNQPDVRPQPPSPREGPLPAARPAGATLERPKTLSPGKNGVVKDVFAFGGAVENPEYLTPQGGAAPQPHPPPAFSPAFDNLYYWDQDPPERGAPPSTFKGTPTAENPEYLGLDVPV
Data set [2] relates to BT-474. Kind of data set: Growth inhibition of human BT474 cells overexpressing HER2 gene after 5 days. The data set is classed as functional. Conditions: BT-474, 120 h.
Data set [3] has as its target T1, Receptor tyrosine-protein kinase erbB-2. The data set is described as follows: Inhibition of N-terminus peptide-tagged human recombinant HER2 expressed using baculovirus infection system using [gamma-33P]-ATP preincubated with compound for 5 mins measured after 10 mins by scintillation counting.
Data set [4] can be described thus: Metabolic stability in mouse liver microsomes at 1 umol/L after 20 mins by HPLC analysis. The data set is classed as ADME, Microsome. Conditions: read-out: Stability. A general note: Liver microsomes are vesicles of endoplasmic reticulum, rich in cytochrome P450 enzymes.
In data set [5] the target is Epidermal growth factor receptor (Homo sapiens, UniProt P00533). The data set is described as follows: Inhibition of N-terminus peptide-tagged human recombinant EGFR expressed using baculovirus infection system using [gamma-33P]-ATP preincubated with compound for 5 mins measured after 10 mins by scintillation counting.
Chain of Epidermal growth factor receptor (P00533 whole entry): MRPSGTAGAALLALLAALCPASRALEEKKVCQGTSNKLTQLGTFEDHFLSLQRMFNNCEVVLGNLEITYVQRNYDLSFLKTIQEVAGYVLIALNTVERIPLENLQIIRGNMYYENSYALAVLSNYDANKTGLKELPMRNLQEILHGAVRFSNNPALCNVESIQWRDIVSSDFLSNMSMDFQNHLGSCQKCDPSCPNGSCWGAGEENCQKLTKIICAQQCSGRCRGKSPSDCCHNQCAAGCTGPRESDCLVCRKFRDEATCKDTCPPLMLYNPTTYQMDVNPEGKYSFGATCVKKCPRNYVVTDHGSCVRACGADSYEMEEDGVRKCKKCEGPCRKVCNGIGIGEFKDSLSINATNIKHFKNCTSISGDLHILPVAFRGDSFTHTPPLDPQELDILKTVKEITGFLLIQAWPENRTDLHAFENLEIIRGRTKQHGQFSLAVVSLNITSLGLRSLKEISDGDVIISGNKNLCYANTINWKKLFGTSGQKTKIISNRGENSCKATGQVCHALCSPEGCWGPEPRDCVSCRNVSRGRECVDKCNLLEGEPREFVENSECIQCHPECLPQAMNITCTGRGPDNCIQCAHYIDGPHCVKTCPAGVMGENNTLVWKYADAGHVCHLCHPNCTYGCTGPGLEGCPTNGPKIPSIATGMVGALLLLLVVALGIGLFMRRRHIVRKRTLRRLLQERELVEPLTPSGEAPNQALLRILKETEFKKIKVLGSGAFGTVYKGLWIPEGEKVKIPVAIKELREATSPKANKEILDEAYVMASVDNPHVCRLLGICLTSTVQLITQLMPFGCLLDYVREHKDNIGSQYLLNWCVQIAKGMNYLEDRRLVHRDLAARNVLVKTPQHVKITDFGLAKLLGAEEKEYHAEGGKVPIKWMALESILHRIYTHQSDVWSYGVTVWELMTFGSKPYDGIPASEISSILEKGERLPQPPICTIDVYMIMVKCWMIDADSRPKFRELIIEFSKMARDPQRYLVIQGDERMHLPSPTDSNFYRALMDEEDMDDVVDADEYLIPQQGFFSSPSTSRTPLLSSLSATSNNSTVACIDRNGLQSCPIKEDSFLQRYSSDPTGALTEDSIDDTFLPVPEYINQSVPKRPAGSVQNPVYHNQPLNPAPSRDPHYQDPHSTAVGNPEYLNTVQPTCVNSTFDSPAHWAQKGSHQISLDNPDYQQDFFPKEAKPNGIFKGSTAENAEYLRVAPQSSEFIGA
Data set [6] is described as follows: Metabolic stability in human liver microsomes at 1 umol/L after 20 mins by HPLC analysis. In kind it is ADME, Microsome. The settings on record: read-out: Stability.
Data set [7] deals with CYP3A4 (Homo sapiens, UniProt P08684). Kind of data set: Inhibition of CYP3A4 at 10 uM after 15 mins. In kind it is ADME.
Chain of CYP3A4 (P08684 whole entry): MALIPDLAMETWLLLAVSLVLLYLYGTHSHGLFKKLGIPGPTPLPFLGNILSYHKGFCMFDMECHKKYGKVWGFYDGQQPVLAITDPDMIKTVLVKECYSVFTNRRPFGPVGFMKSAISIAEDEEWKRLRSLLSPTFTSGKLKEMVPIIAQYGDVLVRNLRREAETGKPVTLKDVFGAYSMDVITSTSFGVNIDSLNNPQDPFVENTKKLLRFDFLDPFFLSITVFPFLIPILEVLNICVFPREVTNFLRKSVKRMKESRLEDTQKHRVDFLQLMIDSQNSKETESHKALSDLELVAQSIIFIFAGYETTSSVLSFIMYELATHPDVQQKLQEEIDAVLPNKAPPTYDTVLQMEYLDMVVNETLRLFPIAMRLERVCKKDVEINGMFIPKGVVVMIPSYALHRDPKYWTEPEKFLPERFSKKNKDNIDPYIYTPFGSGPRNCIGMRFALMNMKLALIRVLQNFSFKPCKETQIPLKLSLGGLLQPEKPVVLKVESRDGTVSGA

As usually defined, the inhibition is the change of the read-out against control, counted positive when it falls. What is called GI50 is the concentration giving 50% growth inhibition. A higher GI50 goes with lower sensitivity of the cells. As a reminder, the IC50 is the point on the concentration scale where inhibition reaches its midpoint. `OCCn1ccc2ncnc(Nc3ccc(Oc4cccc5sccc45)c(Cl)c3)c21`: in data set [1], the inhibition result is “Active”. For the same compound, the GI50 in data set [2] was 15 nM. The IC50 in data set [3] was 6 nM; in data set [5], 8.8 nM. For the same compound, the figures for the microsomal CLint at 1 µM in data set [4] and in data set [6] were 24 µL/min/mg and 144 µL/min/mg, respectively.
Consider `CC(C)(O)C(=O)NCCn1ccc2ncnc(Nc3ccc(Oc4cccc5sncc45)c(Cl)c3)c21`, for which the GI50 in data set [2] turned out to be 9.4 nM. Further, the values for the IC50 in data set [3] and in data set [5] were 2.2 nM and 7 nM, respectively. Moreover, the inhibition at 0.25 h, 10 µM in data set [7] is 62.6%. The microsomal CLint at 1 µM in data set [4] was 145 µL/min/mg; in data set [6], 117 µL/min/mg.
For `O=C1Cc2cc(Oc3ccc(Nc4ncnc5ccn(CCO)c45)cc3Cl)ccc2N1`, the inhibition result in data set [1] was “inactive”. In data set [2], this compound showed a GI50 of 1350 nM. In addition, the results for the IC50 in data set [3] and in data set [5] were 28 nM and 960 nM, respectively.
For the compound `O=C1NCc2cccc(Oc3ccc(Nc4ncnc5ccn(CCO)c45)cc3Cl)c21`, the inhibition entry in data set [1] is “inactive”. In data set [2], this compound had a GI50 of 768 nM. Also, the IC50 in data set [3] is 2.5 nM; in data set [5] it was 21 nM.
As for `CC(C)(C(=O)NCCn1ccc2ncnc(Nc3ccc(Oc4cccc5sncc45)c(Cl)c3)c21)S(C)(=O)=O`, the GI50 in data set [2] was determined as 8 nM. The results for the IC50 in data set [3] and in data set [5] were 2 nM and 5.5 nM, respectively. Further, the inhibition at 0.25 h, 10 µM in data set [7] was determined as 49.9%. The microsomal CLint at 1 µM in data set [4] was 76 µL/min/mg; in data set [6], 113 µL/min/mg.
`Cn1ncc2c(Oc3ccc(Nc4ncnc5ccn(CCO)c45)cc3Cl)cccc21`: the inhibition result in data set [1] is “inactive”. The GI50 in data set [2] is 164 nM. Moreover, the 50% inhibitory concentration (IC50) in data set [3] came out at 2.1 nM; in data set [5], 36 nM. Further, the microsomal CLint at 1 µM was 106 µL/min/mg in data set [4] and 219 µL/min/mg in data set [6].
As to `O=C1NCc2c(Oc3ccc(Nc4ncnc5ccn(CCO)c45)cc3Cl)cccc21`, in data set [1], the inhibition entry was “inactive”. In addition, in data set [2], it took 3360 nM to inhibit growth by half (GI50). Further, the values for the IC50 in data set [3] and in data set [5] were 150 nM and 890 nM, respectively.
The corresponding values for `O=C1NCc2cc(Oc3ccc(Nc4ncnc5ccn(CCO)c45)cc3Cl)ccc21` are “inactive”, 4080 nM, 18 nM and 510 nM.
The corresponding values for `O=C1NCc2ccc(Oc3ccc(Nc4ncnc5ccn(CCO)c45)cc3Cl)cc21` are “Active”, 43 nM, 1.3 nM and 7.8 nM.
The like results for `O=C1Cc2ccc(Oc3ccc(Nc4ncnc5ccn(CCO)c45)cc3Cl)cc2N1` were, in that order, “inactive”, 1880 nM, 130 nM and 2300 nM.
For the compound `CC(C)(C)NC(=O)c1cccc(Oc2ccc(Nc3ncnc4ccn(CCO)c34)cc2Cl)c1`, the GI50 in data set [2] stood at 88 nM. For the same compound, the 50% inhibitory concentration (IC50) in data set [3] is 2.3 nM; in data set [5] it was 33 nM.
For `OCCn1ccc2ncnc(Nc3ccc(Oc4cccc5[nH]ncc45)c(Cl)c3)c21`, the inhibition result in data set [1] is “Active”. Further, the GI50 in data set [2] was found to be 5.5 nM. In addition, the figures for the IC50 in data set [3] and in data set [5] were 1.7 nM and 1.9 nM, respectively. The microsomal CLint at 1 µM in data set [4] was 123 µL/min/mg; in data set [6] it was 114 µL/min/mg.
Compound `CC(C)(CO)C(=O)NCCn1ccc2ncnc(Nc3ccc(Oc4cccc5sncc45)c(Cl)c3)c21` had a GI50 in data set [2] of 8.6 nM. The figures for the IC50 in data set [3] and in data set [5] were 3.3 nM and 7 nM, respectively. Besides, the microsomal CLint at 1 µM in data set [4] amounted to 88 µL/min/mg; in data set [6], 113 µL/min/mg.
In the case of `O=C(NCCn1ccc2ncnc(Nc3ccc(Oc4cccc5sncc45)c(Cl)c3)c21)[C@@H]1CCCN1`, it took 5.8 nM to inhibit growth in data set [2] by half (GI50). Also, the IC50 in data set [3] turned out to be 0.92 nM; in data set [5] it was 3 nM. For the same compound, in data set [7], the inhibition at 0.25 h, 10 µM amounted to 35%. In addition, the microsomal CLint at 1 µM in data set [4] was 74 µL/min/mg; in data set [6], 61 µL/min/mg.
The compound `CC(=O)NCCn1ccc2ncnc(Nc3ccc(Oc4cccc5sncc45)c(Cl)c3)c21` gave a GI50 in data set [2] of 4 nM. Besides, the figures for the 50% inhibitory concentration (IC50) in data set [3] and in data set [5] were 1.6 nM and 2.9 nM, respectively. The same compound registered an inhibition at 0.25 h, 10 µM in data set [7] of 57%. Moreover, the microsomal CLint at 1 µM in data set [4] is 100 µL/min/mg; in data set [6] it was 133 µL/min/mg.
For `OCCn1ccc2ncnc(Nc3ccc(Oc4cccc5sncc45)c(Cl)c3)c21`, in data set [1], the inhibition entry was “Active”. The compound further displayed a GI50 in data set [2] of 3.6 nM. The results for the IC50 in data set [3] and in data set [5] were 2.1 nM and 4.1 nM, respectively. Besides, in data set [7], the inhibition at 0.25 h, 10 µM came to 47.2%. Further, the microsomal CLint at 1 µM in data set [4] turned out to be 142 µL/min/mg; in data set [6] it was 129 µL/min/mg.
Compound `CC(C)(C)C(=O)NCCn1ccc2ncnc(Nc3ccc(Oc4cccc5sncc45)c(Cl)c3)c21` registered a GI50 in data set [2] of 9.2 nM. The 50% inhibitory concentration (IC50) in data set [3] was found to be 6.1 nM; in data set [5], 21 nM. The compound also had an inhibition at 0.25 h, 10 µM in data set [7] of 33.5%. Also, the microsomal CLint at 1 µM is 108 µL/min/mg in data set [4] and 94 µL/min/mg in data set [6].
`OCCn1ccc2ncnc(Nc3ccc(Oc4cccc5[nH]ccc45)c(Cl)c3)c21`: the inhibition entry in data set [1] was “Active”. This compound came in with a GI50 in data set [2] of 36 nM. Further, the IC50 in data set [3] stood at 2.5 nM; in data set [5] it was 3.1 nM. The microsomal CLint at 1 µM in data set [6] came out at 204 µL/min/mg.
For `OCCn1ccc2ncnc(Nc3ccc(Oc4cccc(C(F)(F)F)c4)c(Cl)c3)c21`, the IC50 in data set [5] came to 34 nM.
With `O=C1Cc2c(cccc2Oc2ccc(Nc3ncnc4ccn(CCO)c34)cc2Cl)N1`, the inhibition entry in data set [1] is “Active”. Growth in data set [2] was halved (GI50) at 13 nM. Also, the IC50 in data set [3] was 1.6 nM; in data set [5], 3 nM. For the same compound, the results for the microsomal CLint at 1 µM in data set [4] and in data set [6] were 66 µL/min/mg and 141 µL/min/mg, respectively.
Regarding `O=C1Cc2cccc(Oc3ccc(Nc4ncnc5ccn(CCO)c45)cc3Cl)c2N1`, the inhibition result in data set [1] is “Active”. Also, in data set [2], the GI50 stood at 73 nM. In addition, the IC50 in data set [3] came to 1.5 nM.

The record behind these values is ChEMBL document CHEMBL2046372, “Design and synthesis of pyrrolo[3,2-d]pyrimidine human epidermal growth factor receptor 2 (HER2)/epidermal growth factor receptor (EGFR) dual inhibitors: exploration of novel back-pocket binders” (J Med Chem, 2012).
